Read-outs that look alike come from different tables or passages of the source.
Assays:
[1] = tested on: MCF7 human breast cancer cell line; experiment: MTT assay of MCF7 cells; format: cell-based; conditions: Homo sapiens, media containing 1% fetal bovine serum
Experimental: (§1) MDA-MB-231 and MCF7 cells were plated at a density of 8×10^3 cells/well and 10^4 cells/well in 96-well culture plates, respectively. The compounds were fed in serum free media containing 5% and 1% fetal bovine serum for MDA-MB-231 and MCF7 cells, respectively.

[2] = tested on: +SA mammary epithelial cells; experiment: MTT assay of +SA cells (antiproliferative activity); format: cell-based, mouse; conditions: described from FIG. 32 / text
Experimental: The antiproliferative activities of Compounds 3-44 against the highly metastatic malignant +SA mammary epithelial cells were evaluated by MTT assay. Materials for the assay were purchased from Sigma Chemical Company (St. Louis, Mo.) unless otherwise stated. The highly malignant +SA mouse mammary epithelial cell line was serially passaged at subconfluent cell density. The +SA mammary tumor cell line was derived from an adenocarcinoma that developed spontaneously in a BALB/c female mouse. +SA cells were maintained in serum-free defined medium consisting of Dulbecco's modified Eagle's medium (DMEM)/F12 containing 5 mg/mL bovine serum albumin (BSA), 10 […], 100 U/mL soybean trypsin inhibitor, 100 U/mL penicillin G, 0.1 mg/mL streptomycin, […], and 10 ng/mL epidermal growth factor. For subculturing, cells were rinsed twice with sterile Ca2+ and Mg2+-free phosphate buffered saline (PBS) and incubated in 0.05% trypsin containing 0.025% EDTA in PBS for 5 min at 37° C. The released cells were centrifuged, resuspended in fresh media and counted using hemocytometer. A stock solution of the compounds was prepared in DMSO. Once dissolved, this solution was added to a small volume of sterile 10% BSA in water and incubated overnight at 37° C. This solution conjugated to BSA was used to prepare various concentrations (0-40 μM) of tocotrienol analogs. DMSO was added to all treatment media such that the final DMSO concentration was the same in all treatment groups within a given experiment and was always less than 0.1%. For cytotoxic studies, cells were seeded at a density of 5×10^4 cells/well (+SA cells) or 1×10^5 cells/well (CL-S1 cells) (6 wells/group) in 24-well culture plates and allowed to grow in their respective control media. After 3 days incubation period (approximately 70% confluency), cells were divided equally into various treatment groups and exposed to their respective treatments for a 24 hours incubation period. Following the 24 hours treatment period, cell viability was measured using the MTT assay.
+SA Mammary epithelial cell viable number was determined by a 3-(4,5-dimethylthiazol-2yl)-2,5-diphenyl tetrazolium bromide (MTT) colorimetric assay. On the assay day, treatment medium was replaced with fresh control medium containing 0.42 mg/mL MTT, and the cells in 24-well plates were incubated at 37° C. for 4 hours. Afterward, the medium was removed, and the MTT crystals were dissolved in isopropyl alcohol (1 mL/well). The optical density of each sample was read at 570 nm on a microplate reader (SpectraCount, Packard BioScience Company), against a blank prepared from cell-free cultures. The number of cells/well was calculated against a standard curve prepared by plating various concentrations of cells, as determined by hemocytometer, at the start of each experiment.
Differences among the various treatment groups in +SA cell cytotoxic studies were determined by analysis of variance (ANOVA) followed by Dunnett's t-test. The difference of P<0.05 was considered to be statistically significant as compared with vehicle-treated controls unless separately described. Linear regression analysis of treatment effects on viable cell number in growth and cytotoxicity studies was used to determine the 50% growth inhibition concentration (IC50) for individual treatments.

[3] = tested on: MCF 10A non-tumorigenic mammary epithelial cells; experiment: MTT assay of MCF10A cells; format: cell-based, human; conditions: for IC50: Homo sapiens; for Selectivity index: IC50 for MCF 10A divided by IC50 for +SA cell line
Experimental: MCF 10A (ATCC cat # CRL-10317) normal human non-tumorigenic mammary epithelial cells were maintained in serum-free defined medium consisting of Dulbecco's modified Eagle's medium (DMEM)/F12 containing 5% horse serum, 1% penicillin/streptomycin, 0.5 μg/mL hydrocortisone, 100 ng/mL cholera toxin, 10 μg/mL insulin, and 20 ng/mL epidermal growth factor (rhEGF). For subculturing, cells were rinsed twice with sterile Ca2+ and Mg2+-free phosphate buffered saline (PBS) and incubated in 0.25% trypsin containing 0.025% EDTA in PBS for 5 min at 37° C. The released cells were centrifuged, re-suspended in fresh media and counted using a hemocytometer. For testing, MCF 10A cells were plated at a density of 10×10^4 cells/well. A stock solution of the compounds was prepared in DMSO. DMSO was added to all treatment media such that the final DMSO concentration was the same in all treatment groups within a given experiment and was always less than 0.1%. The compounds were fed in serum free media. MCF10A mammary epithelial cell's viable number was determined by MTT colorimetric assay. […] IC50 values were calculated by non-linear regression using statistical software. The selectivity index indicated in the table represents the IC50 value for the MCF 10A cell line divided by the IC50 value for the +SA cell line.

[4] = tested on: MDA-MB-231 human breast cancer cell line; experiment: MTT assay of MDA-MB-231 cells; format: cell-based; conditions: Homo sapiens, media containing 5% fetal bovine serum
Experimental: as §1

[5] = tested on: leukemia and colon cancer cell lines; experiment: NCI screening at several concentrations (GI50, TGI, LC50); format: cell-based, human
Experimental: The human tumor cell lines of the cancer screening panel were grown in RPMI 1640 medium containing 5% fetal bovine serum and 2 mM L-glutamine. For a typical screening experiment, cells are inoculated into 96 well microtiter plates in 100 μL at plating densities ranging from 5000 to 40,000 cells/well depending on the doubling time of individual cell lines. After cell inoculation, the microtiter plates are incubated at 37° C., 5% CO2, 95% air and 100% relative humidity for 24 hours prior to addition of experimental drugs. After 24 hours, two plates of each cell line are fixed in situ with Trichloroacetic acid (“TCA”), to represent a measurement of the cell population for each cell line at the time of drug addition. Experimental drugs are solubilized in dimethyl sulfoxide at 400-fold the desired final maximum test concentration and stored frozen prior to use. At the time of drug addition, an aliquot of frozen concentrate is thawed and diluted to twice the desired final maximum test concentration with complete medium containing 50 ng/mL gentamicin. An aliquot of 100 μL of this drug dilution is added to the appropriate microtiter wells already containing 100 μL of medium, resulting in the required final drug concentrations. Following drug addition, the plates are incubated for an additional 48 h at 37° C., 5% CO2, 95% air, and 100% relative humidity. For adherent cells, the assay is terminated by the addition of cold TCA. Cells are fixed in situ by the gentle addition of 50 μL of cold 50% (w/v) TCA (final concentration, 10% TCA) and incubated for 60 min at 4° C. The supernatant is discarded, and the plates are washed five times with tap water and air dried. Sulforhodamine B (SRB) solution (100 μL) at 0.4% (w/v) in 1% acetic acid is added to each well, and plates are incubated for 10 min at room temperature. After staining, unbound dye is removed by washing five times with 1% acetic acid and the plates are air dried. Bound stain is subsequently solubilized with 10 mM trizma base, and the absorbance is read on an automated plate reader at a wavelength of 515 nm. For suspension cells, the methodology is the same except that the assay is terminated by fixing settled cells at the bottom of the wells by gently adding 50 μL of 80% TCA (final concentration, 16% TCA). FIGS. 37-74 indicate the growth inhibition effects of selected Compounds against a variety of cell lines based on the above described testing configuration. FIGS. 37-74 present the Growth percent for a given compound against the cell lines and both values and a bar chart of the difference between the mean growth percent and the growth percent which is an indication of the selectivity of the compound for that particular cell line. […]

[6] = tested on: MDA-MB-231 human breast cancer cells; experiment: Wound-healing assay (cell migration); format: cell-based; conditions: Homo sapiens
Experimental: The highly metastatic human breast cancer MDA-MB-231 cells were cultured in RPMI 1640 medium containing 10 mM HEPES, 4 mM L-glutamine, 10% fetal bovine serum, penicillin (100 IU/mL), and streptomycin (50 μg/mL), and grown in a 5% CO2 atmosphere at 37° C. Cells were plated onto sterile 24-well and allowed to recover for a confluent cell monolayer formed in each well (>95% confluence). Wounds were then inflicted to each cell monolayer using a sterile 200 μL pipette tip. Media were removed, cells monolayers were washed twice with PBS, and then fresh media containing test compounds were added to each well. Test compounds were prepared in DMSO at 5 μM concentration and added to the plates, each in triplicate using DMSO as negative control. The incubation was carried out for 24 h under serum-starved conditions, after which media was removed and cells were fixed and stained using a staining composition sold under the trade name Diff Quick (Dade Behring Diagnostics, Aguada, Puerto Rico). The stain comprised a fixative reagent containing 1.8 mg/L triarylmethane dye in methyl alcohol; a first solution of 1 g/L xanthene dye, buffer, and sodium azide (0.01%) as preservative; and a second solution of 1.25 g/L Thiazine dye mixture (0.625 g/L azure A and 0.625 g/L methylene blue) and buffer. The number of cells migrated on the scratched wound were counted under the microscope in three or more randomly selected fields (magnification: 400×). Final results are expressed as mean±SEM per 400× field. The wound-healing assay is a simple method for the study of directional cell migration in vitro.
Compounds were tested for their ability to inhibit the migration of the highly metastatic MDA-MB-231 human breast cancer cells in the wound-healing assay using the procedure described above. Compounds 6, 10, 12, 13, 24, 26, 27, and 29 inhibited the migration of more than 50% of the human breast cancer cells MDA-MB-231 in the wound healing assay at 5 μM dose. […] The antimigratory activity of tocotrienols may be enhanced by a terminal aromatic functionality. The presence of electron withdrawing group, such as nitro in Compound 29, may eliminate the antiproliferative activity yet retain the antimigratory activity of the compound. While the electron donating groups, such as OH and OMe found in Compounds 23 and 26, respectively, retained both antiproliferative and antimigratory activities.
Utilizing similar procedures follow-up testing was conducted on a variety of compounds using a range of compound concentrations. The results of follow-up antimigratory testing are shown in FIG. 35B and Table III below with IC50 values calculated using statistical software.

[7] = tested on: 60 human tumor cell lines; experiment: NCI in vitro screening against 60 human cell lines, single concentration; format: cell-based; conditions: 10 μM dose; negative values indicate cytotoxicity
Experimental: Compounds selected from Compounds 3-44 were provided to the National Cancer Institute for in vitro screening against 60-human cell lines for their ability to inhibit the growth of tumor cells in a full panel representing nine different organs (blood, lung, colon, CNS, skin, ovary, kidney, prostate, and breast). The compounds were tested at a single concentration of 10 μM, and the percentages of growth inhibitions over the sixty tested cell lines were determined. Compounds showing the highest activity were chosen for secondary assays using five different compound concentrations.
The human tumor cell lines of the cancer screening panel were grown in RPMI 1640 medium containing 5% fetal bovine serum and 2 mM L-glutamine. For a typical screening experiment, cells are inoculated into 96 well microtiter plates in 100 μL at plating densities ranging from 5000 to 40,000 cells/well depending on the doubling time of individual cell lines. After cell inoculation, the microtiter plates are incubated at 37° C., 5% CO2, 95% air and 100% relative humidity for 24 hours prior to addition of experimental drugs. After 24 hours, two plates of each cell line are fixed in situ with Trichloroacetic acid (“TCA”), to represent a measurement of the cell population for each cell line at the time of drug addition. Experimental drugs are solubilized in dimethyl sulfoxide at 400-fold the desired final maximum test concentration and stored frozen prior to use. At the time of drug addition, an aliquot of frozen concentrate is thawed and diluted to twice the desired final maximum test concentration with complete medium containing 50 ng/mL gentamicin. An aliquot of 100 μL of this drug dilution is added to the appropriate microtiter wells already containing 100 μL of medium, resulting in the required final drug concentrations. Following drug addition, the plates are incubated for an additional 48 h at 37° C., 5% CO2, 95% air, and 100% relative humidity. For adherent cells, the assay is terminated by the addition of cold TCA. Cells are fixed in situ by the gentle addition of 50 μL of cold 50% (w/v) TCA (final concentration, 10% TCA) and incubated for 60 min at 4° C. The supernatant is discarded, and the plates are washed five times with tap water and air dried. Sulforhodamine B (SRB) solution (100 μL) at 0.4% (w/v) in 1% acetic acid is added to each well, and plates are incubated for 10 min at room temperature. After staining, unbound dye is removed by washing five times with 1% acetic acid and the plates are air dried. Bound stain is subsequently solubilized with 10 mM trizma base, and the absorbance is read on an automated plate reader at a wavelength of 515 nm. For suspension cells, the methodology is the same except that the assay is terminated by fixing settled cells at the bottom of the wells by gently adding 50 μL of 80% TCA (final concentration, 16% TCA). FIGS. 37-74 indicate the growth inhibition effects of selected Compounds against a variety of cell lines based on the above described testing configuration. FIGS. 37-74 present the Growth percent for a given compound against the cell lines and both values and a bar chart of the difference between the mean growth percent and the growth percent which is an indication of the selectivity of the compound for that particular cell line.

[8] = MCF-10A, MCF10A cells, Table II, non-linear regression, read-out: MCF10A (IC50)
[9] = MCF 10A non-tumorigenic cells, Table I, read-out: IC50 MCF 10A

Row | Structure (SMILES) | IC50 [1] [µM] | antiproliferative activity against +SA mammary tumor cells (in words) [2] | IC50 [3, 8] [µM] | IC50 [3, 9] [µM] | Selectivity index [3] | IC50 [4] [µM] | GI50 [5] | inhibition at 5 µM ([6]; MDA-MB-231, 5 μM dose, 24 h, wound-healing assay) [%] | IC50 ([6]; MDA-MB-231, wound-healing assay, dose response, read-out: IC50 antimigratory activity) [µM] | mean percent growth across all 60 cell lines (mean 60) [7]
1 | CC(C)=CCC/C(C)=C/CC/C(C)=C/CC[C@]1(C)CCc2c3c(c(C)c(C)c2O1)OCN(CCCCCO)C3 [Compound 17, 5-((R)-5,6,8-trimethyl-8-((3E,7E)-4,8,12-trimethyltrideca-3,7,11-trienyl)-9,10-dihydrochromeno[5,6-e][1,3]oxazin-2(1H,3H,8H)-yl)pentan-1-ol] | > 20 | very high activities | 8.9 | 8.9 | 5.24 | > 50 | nanomolar |  |  | 
2 | CC(C)=CCC/C(C)=C/CC/C(C)=C/CC[C@]1(C)CCc2c3c(cc(C)c2O1)OCN(CCCO)C3 [Compound 13, 3-((R)-6,8-dimethyl-8-((3E,7E)-4,8,12-trimethyltrideca-3,7,11-trienyl)-9,10-dihydrochromeno[5,6-e][1,3]oxazin-2(1H,3H,8H)-yl)propan-1-ol] | > 20 |  | 6.5 | 6.5 | 3.61 | > 10 |  | > 50 | 6 | negative

Source: US9115145B2, “Tocotrienol derivatives and associated methods” (FIRST TECH INTERNATIONAL LIMITED, priority 2011, dated 2015)
